From US12441730B2, “PRMT5 inhibitors” (Merck Sharp & Dohme LLC, priority 2019, dated 2025)
pEC50: −log10 of the molar value. Like-named read-outs stand apart in the source and are kept apart here.

What was measured:
[1] = biological target: T1, Full-length (FL)-PRMT5-MEP50 enzyme complex (Homo sapiens, UniProt O14744); assay: PRMT5-MEP50 Enzyme Methylation Assay (Version A); type: biochemical
T1 construct: Full-length (FL)-PRMT5-MEP50 enzyme complex (recombinant proteins from baculovirus-transfected Sf21 cells: FL-PRMT5; MW=73837 kDa and FL-MEP50; MW=38614); made in house; host or cells: baculovirus-transfected Sf21 cells
T1 sequence (O14744 whole entry): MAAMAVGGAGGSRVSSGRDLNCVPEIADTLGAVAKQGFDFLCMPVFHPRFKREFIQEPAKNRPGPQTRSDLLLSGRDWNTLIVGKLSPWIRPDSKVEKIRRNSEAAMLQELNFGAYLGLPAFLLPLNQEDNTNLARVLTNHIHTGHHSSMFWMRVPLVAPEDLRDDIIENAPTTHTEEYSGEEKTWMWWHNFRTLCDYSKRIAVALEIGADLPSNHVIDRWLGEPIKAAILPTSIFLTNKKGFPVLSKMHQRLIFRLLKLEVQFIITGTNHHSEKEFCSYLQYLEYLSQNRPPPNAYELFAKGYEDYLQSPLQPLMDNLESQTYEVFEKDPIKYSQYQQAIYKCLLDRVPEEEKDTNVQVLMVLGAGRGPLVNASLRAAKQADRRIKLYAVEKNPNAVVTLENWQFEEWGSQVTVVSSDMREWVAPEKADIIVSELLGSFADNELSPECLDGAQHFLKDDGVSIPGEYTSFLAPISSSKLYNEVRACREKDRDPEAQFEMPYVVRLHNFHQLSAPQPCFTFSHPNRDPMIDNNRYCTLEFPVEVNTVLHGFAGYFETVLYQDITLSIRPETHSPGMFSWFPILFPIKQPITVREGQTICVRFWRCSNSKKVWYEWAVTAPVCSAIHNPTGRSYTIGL
T1 sequence (Q9BQA1 whole entry partner): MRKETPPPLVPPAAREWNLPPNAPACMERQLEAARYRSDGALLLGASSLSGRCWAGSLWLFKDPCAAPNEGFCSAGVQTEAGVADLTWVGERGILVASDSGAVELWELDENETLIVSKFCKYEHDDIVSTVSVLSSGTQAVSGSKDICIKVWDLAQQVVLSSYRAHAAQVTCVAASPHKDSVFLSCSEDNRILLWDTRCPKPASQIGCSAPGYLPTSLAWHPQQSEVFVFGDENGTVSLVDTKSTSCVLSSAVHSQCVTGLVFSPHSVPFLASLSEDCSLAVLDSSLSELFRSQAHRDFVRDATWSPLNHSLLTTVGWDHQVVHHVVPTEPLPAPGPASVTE
Outline: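 Compound was pre-incubated with enzyme for 60 min, then reacted 150 min at 37° C. at final 1.0 nM PRMT5-MEP50, 15 μM SAM and 75 nM biotinylated H4R3(Me1) peptide, in 50 mM Bicine pH 8.0 with 1% DMSO. SAMDI mass-spectrometric readout of Me1→Me2 conversion. EC50 from 4- or 7-parameter regression.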

[2] = test system: symmetric dimethylation of arginine (SDMA) of PRMT5 substrates in MCF-7 cells; assay: PRMT5 Cell Target Engagement (TE) Assay; type: cell-based; details: 3 days treatment, SDMA high content imaging
Outline: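 Readout is single-cell nuclear symmetric-dimethylarginine immunofluorescence (Alexa488), normalized to DMSO-treated cells. Compounds were applied to MCF-7 cells for 3 days at 37 °C, top concentration 10000 nM in 1:3 steps over ten points; curves fitted with 4-parameter robust fit.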

[3] = second value of 7 parameter biphasic fit, read-out: Enzyme Methylation Assay Version A (EC50 2)
[4] = single EC50 = 4 parameter single site sigmoidal fit, EC50 1 = first value of 7 parameter biphasic fit, read-out: Enzyme Methylation Assay Version A (EC50 or EC50 1)

SMILES | pEC50 [1, 3] | pEC50 [1, 4] | pEC50 ([2]; Homo sapiens, MCF7, 72 h) | pEC50 [2]
O=C(c1cn2cc(Br)cc(C(O)C(F)(F)F)c2n1)N1CC[C@]2(Cc3ccccc3CN2)[C@H](O)C1 (single isomer, unassigned) [Example 30, (6-bromo-8-((R or S)-2,2,2-trifluoro-1-hydroxyethyl)imidazo[1,2-a]pyridin-2-yl)((3R,3’R)-3′-hydroxy-1,4-dihydro-2H-spiro[isoquinoline-3,4′-piperidin]-1′-yl)methanone] | 7.00 | 9.23 | 8.44 | –
COc1nc(Br)cn2cc(C(=O)N3CC[C@]4(Cc5ccccc5CN4)[C@H](O)C3)nc12 [Example 8] | 6.40 | 8.81 | 8.44 | –
CC(n1ccc(C(=O)N2CC[C@]3(Cc4ccccc4CN3)[C@H](O)C2)cc1=O)C(F)(F)F (single isomer, unassigned) [Example 103, 4-((3R,3′R)-3′-hydroxy-2,4-dihydro-1H-spiro[isoquinoline-3,4′-piperidin]-1′-ylcarbonyl)-1-((R or S)1,1,1-trifluoropropan-2-yl)pyridin-2(1H)-one] | 4.10 | 6.77 | – | 5.54
Cc1cc(I)c2nc(C(=O)N3CC[C@]4(Cc5ccccc5CN4)[C@H](O)C3)cn2c1 [Example 203, [(3R,3′R)-3′-hydroxy-1,4-dihydro-1′H,2H-spiro[isoquinoline-3,4′-piperidin]-1′-yl](8-iodo-6-methylimidazo[1,2-a]pyridin-2-yl)methanone] | 6.54 | 9.07 | 7.59 | –
O=C(c1nccn2nccc12)N1CC[C@]2(Cc3ccccc3CN2)[C@H](O)C1 [Example 185, ((3R,3′R)-3′-hydroxy-1,4-dihydro-2H-spiro[isoquinoline-3,4′-piperidin]-1′-yl)(pyrazolo[1,5-a]pyrazin-4-yl)methanone] | 4.57 | 7.62 | 5.81 | –
N#Cc1ccc2nc(C(=O)N3CC[C@]4(Cc5ccccc5CN4)[C@H](O)C3)cn2c1 [Example 36, 2-((3R,3’R)-3′-hydroxy-1,4-dihydro-2H-spiro[isoquinoline-3,4′-piperidine]-1′-carbonyl)imidazo[1,2-a]pyridine-6-carbonitrile] | 5.55 | 8.20 | 7.88 | –
O=C(c1cc2ncc(Br)cn2n1)N1CC[C@]2(Cc3ccccc3CN2)[C@H](O)C1 [Example 17, (6-bromopyrazolo[1,5-a]pyrimidin-2-yl)((3R,3’R)-3′-hydroxy-1,4-dihydro-1′H,2H-spiro[isoquinoline-3,4′-piperidin]-1′-yl)methanone] | 6.10 | 8.82 | 7.85 | –
Cc1cn2cc(C(=O)N3CC[C@]4(Cc5ccccc5CN4)[C@H](O)C3)nc2c(Br)n1 [Example 138, (8-bromo-6-methylimidazo[1,2-a]pyrazin-2-yl)[(3R,3′R)-3′-hydroxy-1,4-dihydro-1′H,2H-spiro[isoquinoline-3,4′-piperidin]-1′-yl]methanone] | – | 6.70 | 6.49 | –
CC1CC(C(F)(F)F)Cn2cc(C(=O)N3CC[C@]4(Cc5ccccc5CN4)[C@H](O)C3)nc21 (single isomer, unassigned) [Example 166, ((3R,3′R)-3′-hydroxy-1,4-dihydro-2H-spiro[isoquinoline-3,4′-piperidin]-1′-yl)((6R,8R or 6S,8S)-8-methyl-6-(trifluoromethyl)-5,6,7,8-tetrahydroimidazo[1,2-a]pyridin-2-yl)methanone] | 5.78 | 8.44 | – | 7.47
O=C(c1cn(C2CC2)cn1)N1CC[C@]2(Cc3ccccc3CN2)[C@H](O)C1 [Example 222, (1-cyclopropyl-1H-imidazol-4-yl)[(3R,3′R)-3′-hydroxy-1,4-dihydro-1′H,2H-spiro[isoquinoline-3,4′-piperidin]-1′-yl]methanone] | 4.59 | 6.37 | ≤ 5.00 | –
